In test [1] the target is T1, hERG potassium ion channel (Homo sapiens, UniProt Q12809).
T1 construct: expressed in transfected cells; host or cells: CHO-hERG cells
Nature of the test: Inhibition test for hERG potassium ion channel (automatic patch-clamp, CHO-hERG cells). In kind it is cell-based. The settings on record: Qpatch, highest test concentration 40 μM. The method, then: Experimental purpose: to detect the effect of the embodiments to be tested on the potassium ion channel of hERG by using the fully automatic patch-clamp method.
6.1.1 CHO-hERG cells were cultured in a 175 cm^2 culture flask, after the cell density was increased to 60-80%, the culture medium was removed, the cells were washed once with 7 mL PBS (Phosphate Buffered Saline), and then 3 mL digestive fluid was added for digestion.
6.1.2 After the digestion was complete, 7 mL of culture medium was added for neutralization, then the mixture was centrifuged, the supernatant was aspirated, and then 5 mL of culture medium was added for resuspention to ensure that the cell density was 2-5×10^6/mL.
The single-cell high-impedance sealing and the whole-cell mode formation process were all automatically completed by the Qpatch instrument of the Shanghai Institute of Materia Medica, Chinese Academy of Sciences. After the whole-cell recording mode was obtained, the cells were clamped at −80 millivolts. […] The data were recorded for 2 minutes, then extracellular fluid was administrated, and then the data were recorded for 5 minutes. […]
The experimental data were analyzed by XLFit software.
Background: hERG is a cardiac potassium channel; its block is linked to QT prolongation.

Test [2] deals with MC38 mouse colon cancer transplanted tumor model. Nature of the test: In vivo pharmacodynamic study on MC38 mouse colon cancer transplanted tumor model. The settings on record: compound 6 hydrochloride 1.5 mg/kg oral once a day, PD-1 mAb 5 mg/kg i.p. twice a week. The arrangement: species or system C57BL/6 mice. The procedure:
The purpose of this experiment was to evaluate the in vivo efficacy of the compounds of the present disclosure on MC38 mouse colon cancer transplanted tumor model.
Name: MC38 (Mouse Colon Cancer Cell)
Cell culture: 1640 medium containing 10% fetal bovine serum was used as culture medium, and the culture condition was 37° C., 5% carbon dioxide. The passage ratio was 1:2 to 1:3, the passage was performed 2-3 times per week.
0.1 mL (2×10^5 cells) of cells were subcutaneously inoculated into the right back of each mouse. On the same day, the animals were randomly grouped according to their body weight. […]
The experimental indicator is to investigate whether the tumor growth was inhibited, delayed or cured. Tumor diameters were measured with a vernier caliper twice a week. The tumor volume was calculated by the formula: V=0.5a×b^2, a and b respectively represent the long and short diameters of the tumor.
The efficacy of the compound was evaluated by relative tumor growth rate T/C (%). […] The relative tumor volume (RTV) was calculated based on the results of tumor measurement, the calculation formula was: RTV=Vt/V0, wherein V0 was the average tumor volume measured at the time of grouping administration (i.e., do), Vt is the average tumor volume measured at a single time, TRTV and CRTV were calculated from the data on the same day.

Test [3] relates to human small cell lung cancer NCI-H1417 xenograft tumor model. Nature of the test: In vivo pharmacodynamic study on NCI-H1417 subcutaneous xenograft tumor in CB-17 SCID mice. Particulars: compound 6 hydrochloride 1.5 mg/kg oral once a day, cisplatin 1 mg/kg i.p. twice a week. The method, then: The purpose of the experiment was to evaluate the in vivo efficacy of the compounds of the present disclosure on subcutaneous xenograft tumor of human small cell lung cancer NCI-H1417 cells in a CB-17 SCID mouse model.
Human small cell lung cancer NCI-H1417 cells (ATCC) were cultured in vitro in a single layer, the culture conditions were RPMI-1640 culture medium supplemented with 10% fetal bovine serum, 37° C. 5% CO2. When the cell saturation reached 80%-90%, the cells were collected, counted, and inoculated.
0.2 mL of 10×10^6 NCI-H1417 cells were subcutaneously inoculated into the right back of each mouse (PBS: Matrigel=1:1). Group administration was started when the average volume reached 100-150 mm^3.
The vehicle used in the experiment was 0.5% methylcellulose solution, the preparation method was: 5 g of methylcellulose was weighed and dissolved in 800 mL ultrapure water, stirred evenly and made up to 1000 mL with ultrapure water. The test substance was dissolved in a solvent and prepared into a uniform solution of a certain concentration, and stored at 4° C.
Cisplatin (Cisplatin, manufacturer Qilu Pharmaceutical Co., Ltd., 10 mg/bottle freeze-dried powder for injection, lot number 7D011A8) was added to 10 mL 0.9% NaCl to make a 1 mg/mL mother liquor, and stored at room temperature and protected from light. The mother liquor was aliquoted into 0.63 mL and stored at room temperature. 5.67 mL 0.9% NaCl was added to one of the 0.63 mL mother liquor to make a 0.1 mg/mL solution.
The experimental indicator is to investigate whether tumor growth was inhibited, delayed, or cured. Tumor diameters were measured with a vernier caliper twice a week. The tumor volume was calculated by the calculation formula: V=0.5a×b^2, a and b respectively represent the long and short diameters of the tumor.
The anti-tumor effect of the compounds was evaluated by TGI (%). TGI (%) can reflect the tumor growth inhibition rate. TGI (%) calculation: TGI (%)=[1-(the average tumor volume at the end of the administration in a treatment group—the average tumor volume at the beginning of the administration in the treatment group)/(the average tumor volume at the end of the treatment of the solvent control group—the average tumor volume at the beginning of the treatment of the solvent control group)]×100%.

Each structure is given as a SMILES string. Where a name gives a salt, the structure may show the parent alone.

T1 sequence (Q12809 whole entry): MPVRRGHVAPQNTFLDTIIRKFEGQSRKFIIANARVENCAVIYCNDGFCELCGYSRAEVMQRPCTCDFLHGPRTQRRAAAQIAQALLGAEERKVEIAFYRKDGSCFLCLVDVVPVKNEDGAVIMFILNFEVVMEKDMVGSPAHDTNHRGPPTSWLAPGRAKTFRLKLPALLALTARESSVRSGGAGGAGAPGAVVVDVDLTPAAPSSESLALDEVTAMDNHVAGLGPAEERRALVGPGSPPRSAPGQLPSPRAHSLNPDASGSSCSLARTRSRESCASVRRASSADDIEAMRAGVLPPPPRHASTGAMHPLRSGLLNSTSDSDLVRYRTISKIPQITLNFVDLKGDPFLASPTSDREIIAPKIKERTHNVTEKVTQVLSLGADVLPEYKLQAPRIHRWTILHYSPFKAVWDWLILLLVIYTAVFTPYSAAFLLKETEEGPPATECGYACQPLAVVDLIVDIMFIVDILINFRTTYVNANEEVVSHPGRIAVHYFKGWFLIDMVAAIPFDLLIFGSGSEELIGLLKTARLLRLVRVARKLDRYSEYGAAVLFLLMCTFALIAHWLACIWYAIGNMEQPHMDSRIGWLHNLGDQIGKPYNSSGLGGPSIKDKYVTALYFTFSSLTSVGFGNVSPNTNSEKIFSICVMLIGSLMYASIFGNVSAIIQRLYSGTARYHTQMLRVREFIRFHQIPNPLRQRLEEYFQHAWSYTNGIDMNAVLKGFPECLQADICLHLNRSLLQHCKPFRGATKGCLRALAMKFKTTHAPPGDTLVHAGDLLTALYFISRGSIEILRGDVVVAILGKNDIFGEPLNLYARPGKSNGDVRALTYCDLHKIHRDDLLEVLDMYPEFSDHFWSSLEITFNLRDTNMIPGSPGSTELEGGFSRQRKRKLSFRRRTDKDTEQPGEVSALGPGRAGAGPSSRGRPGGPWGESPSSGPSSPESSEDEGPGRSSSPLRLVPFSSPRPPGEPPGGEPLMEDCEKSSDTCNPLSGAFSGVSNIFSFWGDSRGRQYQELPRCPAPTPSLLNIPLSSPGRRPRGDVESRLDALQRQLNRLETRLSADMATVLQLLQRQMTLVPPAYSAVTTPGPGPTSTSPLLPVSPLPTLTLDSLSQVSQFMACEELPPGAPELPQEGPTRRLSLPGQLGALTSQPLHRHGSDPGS

The term IC50 denotes the concentration that gives 50% inhibition. Lower therefore signals greater potency. For orientation: T/C means the result in the treated group divided by that in the control group, in per cent. By TGI is commonly meant the reduction of tumour growth relative to the control group. Read a low TGI as little slowing of growth. `O=C(O)c1ccc(CN2CCC3(CC2)CC(N[C@@H]2C[C@H]2c2ccccc2)CO3)cc1` (some centres unmarked) [Hydrochloride of the compound 6] yielded an IC50 in test [1] of more than 40 µM. In addition, the “Tumor volume (28th day)” value in test [2] (C57BL/6 mice, 28th day after administration) stood at 1653 ± 893 mm^3. In test [2] (relative tumor growth rate, 28th day), this compound came in with a T/C of 92%. Besides, in test [3] (CB-17 SCID mice), the “Tumor volume mean ± SEM (28th day)” value is 187 ± 14 mm^3. Besides, the TGI in test [3] (tumor growth inhibition rate, 28th day) was 79.2%.

Values taken from patent US11649245B2, “Cyclopropylamine compound as LSD1 inhibitor and use thereof” (HELIOEAST PHARMACEUTICAL CO., LTD., priority 2018, dated 2023).
